What was measured:
Test in all cases: selective drug sensitivity score (sDSS, relative to normal bone marrow) (sDSS (score)); higher = more potent and effective on the cell line relative to normal bone marrow cells
Details in all cases: 72 h
COG-LL-317 = test system: COG-LL-317
HPB-ALL = test system: HPB-ALL
KASUMI-9 = test system: KASUMI-9
MOLT-14 = test system: MOLT-14
380 = test system: 380
DND-41 = test system: DND-41
CCRF-HSB2 = test system: CCRF-HSB2
COG-LL-332h = test system: COG-LL-332h
ALL-PO = test system: ALL-PO
COG-LL-394h = test system: COG-LL-394h
KOPN-8 = test system: KOPN-8
MOLT-16 = test system: MOLT-16
REH = test system: REH
COG-LL-402h = test system: COG-LL-402h
MHH-CALL-3 = test system: MHH-CALL-3
MN-60 = test system: MN-60
JURKAT = test system: JURKAT
P12-ICHIKAWA = test system: P12-ICHIKAWA
RCH-ACV = test system: RCH-ACV
HAL-01 = test system: HAL-01
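Also: ALL cell lines in 384-well plates, five doses spanning 10,000-fold, each plate scaled between vehicle and 100 µmol/L benzalkonium chloride controls, sDSS an adapted area-under-curve metric.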

Row | SMILES | selective drug sensitivity score (COG-LL-317) | selective drug sensitivity score (HPB-ALL) | selective drug sensitivity score (KASUMI-9) | selective drug sensitivity score (MOLT-14) | selective drug sensitivity score 380 | selective drug sensitivity score (DND-41) | selective drug sensitivity score (CCRF-HSB2) | selective drug sensitivity score (COG-LL-332h) | selective drug sensitivity score (ALL-PO) | selective drug sensitivity score (COG-LL-394h) | selective drug sensitivity score (KOPN-8) | selective drug sensitivity score (MOLT-16) | selective drug sensitivity score (REH) | selective drug sensitivity score (COG-LL-402h) | selective drug sensitivity score (MHH-CALL-3) | selective drug sensitivity score (MN-60) | selective drug sensitivity score (JURKAT) | selective drug sensitivity score (P12-ICHIKAWA) | selective drug sensitivity score (RCH-ACV) | selective drug sensitivity score (HAL-01)
1 | CCN(CC)Cc1ccc2cc(COC(=O)Nc3ccc(C(=O)NO)cc3)ccc2c1 [Givinostat] (top concentration 1000 nM) | 4.1 | 6.3 | 7.6 | 6.8 | 6.9 | 2.4 | 4.5 | -0.3 | 3.9 | 2.4 | 13.5 | 5.1 | 0.2 | 12.9 | 15.6 | -1.2 | 0.9 | 3.1 | 9.8 | -2.4
2 | CS(=O)(=O)c1ccc(C(=O)Nc2ccc(Cl)c(-c3ccccn3)c2)c(Cl)c1 [Vismodegib] (top concentration 10000 nM) | -1.14 | 0.76 | -0.74 | -1.14 | 0.76 | 2.76 | -1.14 | -1.14 | 3.56 | -1.14 | 6.76 | -1.14 | -1.14 | -1.14 | -1.14 | -1.14 | -1.14 | -1.14 | 3.46 | -1.14
3 | CC(C)(C)c1cnc(CSc2cnc(NC(=O)C3CCNCC3)s2)o1 [SNS-032] (top concentration 10000 nM) | 1.66 | -4.74 | -0.54 | -4.74 | -6.64 | -2.44 | -2.24 | -3.54 | -6.74 | -2.04 | -2.54 | -0.64 | -5.44 | 3.06 | -4.44 | -8.64 | -6.54 | -5.04 | 1.26 | -8.04
4 | Cc1ccc(C(=O)Nc2cccc(C(F)(F)F)c2)cc1Nc1nc(-c2cccnc2)nc2c1cnn2C [NVP-BHG712] (top concentration 10000 nM) | 1.48 | 0.18 | 5.18 | 2.28 | 1.28 | 5.38 | 10.3 | 5.98 | 2.48 | -2.32 | 7.78 | 3.68 | 6.18 | -2.32 | 1.48 | 0.68 | 2.98 | 3.08 | 7.78 | 2.98
5 | C=C(c1ccc(C(=O)O)cc1)c1cc2c(cc1C)C(C)(C)CCC2(C)C [Bexarotene] (top concentration 10000 nM) | -5.1 | -5.1 | -3.4 | 0.4 | 24 | -5.3 | -0.9 | -1.7 | 3.7 | -5.3 | 8 | 1.7 | -3.8 | -5.3 | 10.2 | -5.3 | -2.7 | -0.5 | -5.1 | -0.9
6 | O=C(Nc1cc(Oc2cc(F)c(NC(=O)C3(C(=O)Nc4ccc(F)cc4)CC3)cc2F)ccn1)C1CC1 [Altiratinib] (top concentration 10000 nM) | -0.46 | 3.54 | -0.16 | -0.36 | -0.86 | 3.74 | 8.14 | 3.84 | 8.94 | 1.84 | 3.74 | 0.04 | 3.84 | -2.16 | -4.86 | -4.86 | 0.84 | 0.34 | 7.24 | 1.14
7 | CNCc1ccc(-c2[nH]c3cc(F)cc4c3c2CCNC4=O)cc1 [Rucaparib] (top concentration 10000 nM) | 6.52 | -0.58 | 2.72 | 1.62 | 11.5 | -0.38 | 1.22 | 1.52 | -0.58 | 0.92 | 5.12 | 2.72 | 1.52 | 2.42 | 13.8 | -0.58 | -0.58 | -0.58 | 1.02 | 4.32
8 | CNC(=O)c1nn(C)c2c1C(C)(C)Cc1cnc(Nc3ccc(N4CCN(C)CC4)cc3)nc1-2 [Milciclib] (top concentration 10000 nM) | 8.94 | 4.44 | 9.94 | 7.04 | -0.06 | 9.04 | 13.9 | 3.24 | 9.94 | 1.74 | 5.84 | 6.44 | 4.44 | 12 | -5.26 | 2.04 | 4.34 | 2.34 | 14.3 | 5.94
9 | CCc1nc(C(N)=O)c(Nc2ccc(N3CCC(N4CCN(C)CC4)CC3)c(OC)c2)nc1NC1CCOCC1 [Gilteritinib] (top concentration 1000 nM) | -2.52 | -1.62 | 2.88 | -2.52 | -2.52 | -2.52 | 0.08 | -2.52 | 2.28 | 1.78 | 3.08 | -2.52 | -2.52 | 1.58 | -2.52 | -2.52 | -2.52 | -2.52 | 2.58 | -1.82
